Results on eight compounds are retold here after DBAASP.

In brackets after ≈: the same amount, converted by molar mass. Several values for one entry are separate records, joined by “and”; a condition that tells them apart may be missing. Equal values may be shown once.

Among the test systems are Escherichia coli MG1655; Bacillus subtilis 168 HT; Escherichia coli UB1005; Staphylococcus aureus; Streptococcus agalactiae.
Assay in all cases: ≥ marks a high value that may be exact or a test limit, other limits are often not marked, values filed in µg/mL are converted to µM
For test [1], the system named is Burkholderia thailandensis.
In test [2] the test system is Bacillus anthracis Sterne 34F2.
Test [3] concerns Bacillus subtilis ATCC 9372.
For test [4], the system named is Pseudomonas aeruginosa ATCC 27853.
Test [5] deals with Staphylococcus aureus ATCC 29213.
The test system of test [6] is Klebsiella pneumoniae ATCC 700603.
The subject of test [7] is Escherichia coli ATCC 25922.
Test [8] concerns Staphylococcus aureus ATCC 700699.
Test [9] deals with Staphylococcus aureus ATCC 33591.
The subject of test [10] is Staphylococcus epidermidis ATCC 12228.
Test [11] deals with Salmonella enterica subsp. enterica serovar Typhimurium ATCC 14028.
The subject of test [12] is Enterococcus faecalis ATCC 29212.
The test system of test [13] is Staphylococcus aureus ATCC 43300.
The subject of test [14] is Salmonella enterica subsp. enterica serovar Choleraesuis CVCC 503.
Test [15] concerns Salmonella enterica subsp. enterica serovar Pullorum C79-13.
In test [16] the test system is Salmonella enterica subsp. enterica serovar Typhimurium C77-31.

For the compound `CSCC[C@H](NC(=O)[C@H](CCCCN)NC(=O)[C@H](CCCCN)NC(=O)[C@H](CC(C)C)NC(=O)[C@H](CC(C)C)NC(=O)[C@H](CCCN=C(N)N)NC(=O)[C@H](CCCN=C(N)N)NC(=O)[C@H](CCCCN)NC(=O)[C@H](C)N)C(=O)N[C@@H](CCCCN)C(=O)O` [AKRRLLKKMK], the MIC in the test on Escherichia coli MG1655 and against Bacillus subtilis 168 HT was no less than 101 µM throughout.
Take `CSCC[C@H](NC(=O)[C@H](Cc1ccccc1)NC(=O)CNC(=O)CNC(=O)[C@H](Cc1ccc(O)cc1)NC(=O)[C@H](CCCN=C(N)N)NC(=O)[C@H](CCCCN)NC(=O)[C@H](CCC(=O)O)NC(=O)[C@H](CCSC)NC(=O)[C@H](CCC(=O)O)NC(=O)[C@@H]1CCCN1C(=O)[C@@H]1CCCN1C(=O)[C@H](CCC(=O)O)NC(=O)[C@H](CCCCN)NC(=O)[C@H](CO)NC(=O)[C@H](Cc1ccc(O)cc1)NC(=O)[C@H](CO)NC(=O)[C@H](CCC(=O)O)NC(=O)CNC(=O)[C@H](CCC(=O)O)NC(=O)[C@H](CCC(=O)O)NC(=O)[C@H](CCC(=O)O)NC(=O)[C@H](CO)NC(=O)[C@@H]1CCCN1C(=O)[C@H](CC(C)C)NC(=O)[C@@H]1CCCN1C(=O)[C@H](CCC(=O)O)NC(=O)[C@H](C)NC(=O)[C@H](Cc1ccccc1)NC(C)=O)C(N)=O` [FAEPLPSEEEGESYSKEPPEMEKRYGGFM]: the MIC in test [1] was no less than 50 µM; in test [2] it was no less than 100 µM; in test [3], no less than 100 µM.
On to `CC[C@H](C)[C@H](NC(=O)[C@H](CC(=O)O)NC(=O)[C@H](CCCCN)NC(=O)[C@H](C)NC(=O)[C@H](C)NC(=O)[C@H](C)NC(=O)[C@H](CCCCN)NC(=O)[C@H](CC(C)C)NC(=O)[C@@H](NC(=O)[C@H](CC(=O)O)NC(=O)[C@@H](NC(=O)[C@@H](NC(=O)CN)C(C)C)C(C)C)[C@@H](C)CC)C(=O)N[C@@H](C)C(=O)NCC(=O)N[C@@H](Cc1cnc[nH]1)C(=O)N[C@@H](CC(C)C)C(=O)N[C@@H](C)C(=O)N[C@@H](CO)C(=O)N[C@@H](CCCCN)C(=O)N[C@H](C(=O)N[C@@H](CCSC)C(=O)N[C@@H](CC(N)=O)C(=O)N[C@@H](CCCCN)C(=O)N[C@@H](CC(C)C)C(N)=O)C(C)C` [GVVDILKAAAKDIAGHLASKVMNKL], for which the minimum inhibitory concentration (MIC) in [4] was 100 µM (≈ 256 µg/mL); in test [5] it was greater than 100 µM; in test [6], 50 µM (≈ 128 µg/mL); in test [7], 25 µM (≈ 64.1 µg/mL); in [8], no less than 100 µM; in test [9] it was no less than 100 µM.
For `CC[C@H](C)[C@H](N)C(=O)N[C@H](C(=O)N[C@@H](CS)C(=O)N[C@@H](CCCN=C(N)N)C(=O)N[C@@H](CCCCN)C(=O)N1CCC[C@H]1C(=O)N[C@H](C(=O)N[C@H](C(=O)N[C@@H](CS)C(=O)N[C@@H](CCCN=C(N)N)C(=O)N[C@@H](CCCCN)C(=O)N1CCC[C@H]1C(=O)N[C@H](C(=O)N[C@H](C(=O)N[C@@H](CS)C(=O)N[C@@H](CCCN=C(N)N)C(=O)N[C@@H](CCCCN)C(=O)N1CCC[C@H]1C(=O)N[C@H](C(=O)N[C@H](C(=O)N[C@@H](CS)C(=O)N[C@@H](CCCN=C(N)N)C(=O)N[C@@H](CCCCN)C(=O)N1CCC[C@H]1C(=O)N[C@H](C(=O)N[C@H](C(N)=O)[C@@H](C)CC)[C@@H](C)CC)[C@@H](C)CC)[C@@H](C)CC)[C@@H](C)CC)[C@@H](C)CC)[C@@H](C)CC)[C@@H](C)CC)[C@@H](C)CC` [IICRKPIICRKPIICRKPIICRKPII], the MIC in [10] is 16 µM (≈ 49.4 µg/mL); in test [5], 32 µM and 64 µM; in the test on Escherichia coli UB1005 it was 1 µM (≈ 3.09 µg/mL); against Staphylococcus aureus, 16 µM (≈ 49.4 µg/mL); in [11], 2 µM (≈ 6.17 µg/mL); in the test on Streptococcus agalactiae it was 16 µM (≈ 49.4 µg/mL). Further, the MIC was 32 µM (≈ 98.8 µg/mL) in test [12]; 16 µM (≈ 49.4 µg/mL) in [13]; 4 µM (≈ 12.3 µg/mL) in test [14]; 8 µM (≈ 24.7 µg/mL) in [15]; 2 µM (≈ 6.17 µg/mL) in test [16].
As for `CC[C@H](C)[C@H](NC(=O)CNC(=O)[C@@H](NC(=O)[C@H](CCCCN)NC(=O)[C@H](CCCCN)NC(=O)CNC(=O)[C@@H](NC(=O)[C@H](CCCCN)NC(=O)[C@H](Cc1c[nH]c2ccccc12)NC(=O)[C@H](CCCCN)NC(=O)[C@H](CCSC)NC(C)=O)[C@@H](C)CC)[C@@H](C)CC)C(=O)NCC(=O)N[C@@H](CCCCN)C(=O)N[C@@H](Cc1ccccc1)C(=O)N[C@@H](CC(C)C)C(=O)N[C@@H](Cc1cnc[nH]1)C(=O)N[C@@H](CO)C(=O)N[C@@H](C)C(=O)N[C@@H](CCCCN)C(=O)N[C@@H](CCCCN)C(=O)N[C@@H](Cc1ccccc1)C(=O)N[C@@H](CC(N)=O)C(N)=O` [MKWKIGKKIGIGKFLHSAKKFN], the minimum inhibitory concentration (MIC) is no less than 50 µM in test [1], no less than 100 µM in test [2] and no less than 100 µM in [3].
In the case of `CC(C)[C@H](NC(=O)[C@H](CCC(N)=O)NC(=O)[C@H](CS)NC(=O)[C@H](C)NC(=O)[C@H](CCCCN)NC(=O)[C@H](CCCN=C(N)N)NC(=O)[C@H](CC(N)=O)NC(=O)[C@H](CCCCN)NC(=O)[C@H](CCCCN)NC(=O)[C@H](Cc1c[nH]c2ccccc12)NC(=O)[C@@H](NC(=O)[C@H](CCCCN)NC(=O)CNC(=O)[C@@H](N)CC(N)=O)[C@@H](C)O)C(=O)N[C@@H](CCCCN)C(=O)O` [NGKTWKKNRKACQVK], the MIC against Escherichia coli MG1655 and in the test with Bacillus subtilis 168 HT was no less than 71.5 µM in each case.
With `CC(C)C[C@H](NC(=O)[C@H](Cc1ccccc1)NC(=O)[C@H](CS)NC(=O)[C@@H](NC(=O)[C@H](CC(C)C)NC(=O)[C@H](CCCN=C(N)N)NC(=O)[C@H](Cc1c[nH]c2ccccc12)NC(=O)[C@@H](N)CCCN=C(N)N)C(C)C)C(=O)N[C@@H](CS)C(=O)N[C@@H](CCCN=C(N)N)C(=O)N[C@@H](CCCN=C(N)N)C(=O)N[C@@H](CCCCN)C(=O)N[C@@H](CCCCN)C(=O)N[C@H](C(=O)O)C(C)C` [RWRLVCFLCRRKKV], the minimum inhibitory concentration (MIC) in the test on Escherichia coli MG1655 amounted to 17.2 µM (≈ 32.1 µg/mL); against Bacillus subtilis 168 HT it was 8.6 µM (≈ 16 µg/mL).
Turning to `CC(C)[C@H](N)C(=O)N[C@@H](CS)C(=O)N[C@@H](CCCN=C(N)N)C(=O)N[C@@H](CCCCN)C(=O)N1CCC[C@H]1C(=O)N[C@H](C(=O)N[C@H](C(=O)N[C@@H](CS)C(=O)N[C@@H](CCCN=C(N)N)C(=O)N[C@@H](CCCCN)C(=O)N1CCC[C@H]1C(=O)N[C@H](C(=O)N[C@H](C(=O)N[C@@H](CS)C(=O)N[C@@H](CCCN=C(N)N)C(=O)N[C@@H](CCCCN)C(=O)N1CCC[C@H]1C(=O)N[C@H](C(N)=O)C(C)C)C(C)C)C(C)C)C(C)C)C(C)C` [VCRKPVVCRKPVVCRKPV], the MIC in test [10] was greater than 64 µM; in test [5], greater than 64 µM; in test [7] it was 8 µM (≈ 16.5 µg/mL); against Escherichia coli UB1005 it was 16 µM (≈ 33.1 µg/mL); in the test on Staphylococcus aureus, greater than 64 µM; in test [11], 8 µM (≈ 16.5 µg/mL). Further, the minimum inhibitory concentration (MIC) in the test on Streptococcus agalactiae was no less than 64 µM; in test [12], greater than 64 µM; in test [13] it was greater than 64 µM; in [14], no less than 64 µM; in test [15] it was no less than 64 µM; in test [16], 16 µM (≈ 33.1 µg/mL).

As a reminder, the MIC is the least concentration at which growth counts as inhibited.
